Consider nine compounds from PubChem BioAssay (NCI).

Among the test systems are UACC-257 melanoma; IGROV1 ovarian; RXF 393 renal; OVCAR-8 ovarian; CAKI-1 renal; RPMI-8226 leukemia; EKVX NSCLC; U251 CNS; HCC-2998 colon; COLO 205 colon.
Holding throughout (test): NCI tumour cell line growth inhibition, 48 h

Each structure is given as a SMILES string. “And” between values parts separate entries of the source, which are not always exact repeats. Identical values can stand only once.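 Where inhibition never reached the appropriate level, the endpoint shown equals the highest concentration tested. Otherwise, values were interpolated linearly from a five-concentration, 48-hour dose response in 96-well plates. Abbreviation: GI50, concentration required for 50% inhibition of growth. TGI marks complete inhibition of growth.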 Some results are limits rather than exact numbers.

As to `CCOC(=O)Nc1nc2ccccc2[nH]1`, the GI50 is 3.77 µM in the experiment on UACC-257 melanoma; > 26.6 µM and 4.1 µM in the experiment on IGROV1 ovarian; 3.89 µM in the experiment with RXF 393 renal; 7.6 µM and 7.04 µM with OVCAR-8 ovarian; 3.84 µM and 3.73 µM in the experiment on CAKI-1 renal; 4130 nM and 2260 nM in the experiment on RPMI-8226 leukemia. In addition, the GI50 in the experiment on EKVX NSCLC was above 24 µM; with U251 CNS, 5.2 µM and 4.48 µM; in the experiment on HCC-2998 colon, 19.8 µM and 95.3 µM; in the experiment with COLO 205 colon, 3.62 µM and 3.27 µM. In addition, the TGI in the experiment with UACC-257 melanoma was above 100 µM; in the experiment on IGROV1 ovarian, above 100 µM; in the experiment on RXF 393 renal it was 43.6 µM; in the experiment with OVCAR-8 ovarian it was above 100 µM; in the experiment with CAKI-1 renal it was above 100 µM; in the experiment on RPMI-8226 leukemia, above 100 µM. The TGI is above 100 µM in the experiment on EKVX NSCLC; above 100 µM in the experiment on U251 CNS; above 100 µM in the experiment on HCC-2998 colon; 15.2 µM and > 32.6 µM with COLO 205 colon.
As to `Cc1cc(C(=O)Nc2n[nH]c3ccccc23)n[nH]1`, the GI50 with UACC-257 melanoma is above 100 µM; with IGROV1 ovarian, 32.7 µM; in the experiment on RXF 393 renal it was above 100 µM; in the experiment with OVCAR-8 ovarian, above 100 µM; in the experiment on CAKI-1 renal, 90.5 µM; with RPMI-8226 leukemia, above 100000 nM. The GI50 in the experiment on EKVX NSCLC is above 100 µM; in the experiment with U251 CNS, above 100 µM; in the experiment with HCC-2998 colon, 50.6 µM; in the experiment with COLO 205 colon, above 100 µM. Moreover, the TGI in the experiment on UACC-257 melanoma, in the experiment with IGROV1 ovarian, with RXF 393 renal, with OVCAR-8 ovarian, with CAKI-1 renal and with RPMI-8226 leukemia was above 100 µM in each case. The TGI in the experiment on EKVX NSCLC, in the experiment with U251 CNS, in the experiment on HCC-2998 colon and in the experiment with COLO 205 colon was above 100 µM in each case.
On to `CC[C@@]1(OC(=O)C(N)CCCCN)C(=O)OCc2c1cc1n(c2=O)Cc2cc3ccccc3nc2-1` (stereo not given in full), for which the TGI in the experiment on UACC-257 melanoma worked out at 1.56 µM; in the experiment on IGROV1 ovarian it was 2.37 µM; with RXF 393 renal, 0.861 µM; in the experiment on OVCAR-8 ovarian, 3.1 µM; in the experiment on CAKI-1 renal, 0.158 µM; in the experiment with RPMI-8226 leukemia, 0.883 µM. Further, the TGI is above 30.6 µM in the experiment with EKVX NSCLC, above 11.6 µM in the experiment on U251 CNS, 2.11 µM with HCC-2998 colon and 3.39 µM with COLO 205 colon.
On to `C=C1C(=O)OC2C1C(OC(=O)/C(C)=C/C)CC(O)(CCl)C1C(O)C=C(C)C21O` (stereo not given), for which the TGI worked out at 25.6 µM in the experiment with UACC-257 melanoma; 31.6 µM in the experiment with IGROV1 ovarian; 18.3 µM with RXF 393 renal; 37.2 µM in the experiment on OVCAR-8 ovarian; 11.4 µM in the experiment on CAKI-1 renal; 30.6 µM in the experiment with RPMI-8226 leukemia. The TGI in the experiment on EKVX NSCLC stood at 29.9 µM; in the experiment with U251 CNS it was 65.1 µM; with HCC-2998 colon it was 25.6 µM; with COLO 205 colon it was 18.5 µM.
Regarding `Cc1ccc(S(=O)(=O)NC(=O)NCCc2ccccc2)cc1`, the TGI in the experiment on UACC-257 melanoma is 88.2 µM; in the experiment on IGROV1 ovarian, above 100 µM; in the experiment on RXF 393 renal, above 100 µM; with OVCAR-8 ovarian, above 100 µM; in the experiment with CAKI-1 renal, above 100 µM; in the experiment with RPMI-8226 leukemia it was above 100 µM. The TGI with EKVX NSCLC, with U251 CNS, in the experiment on HCC-2998 colon and in the experiment with COLO 205 colon was above 100 µM in each case.
For `Cc1ccc(S(=O)(=O)OCC#CCOS(=O)(=O)c2ccc(C)cc2)cc1`, the GI50 in the experiment on UACC-257 melanoma was 1.92 µM; with IGROV1 ovarian it was 0.992 µM; with RXF 393 renal, 2.22 µM; in the experiment with OVCAR-8 ovarian, 2.45 µM; in the experiment on CAKI-1 renal, 0.512 µM; with RPMI-8226 leukemia, 1850 nM. Also, the GI50 in the experiment on EKVX NSCLC is 2.08 µM; in the experiment with U251 CNS, 1.69 µM; in the experiment on HCC-2998 colon, 2.85 µM; in the experiment with COLO 205 colon it was 2.42 µM. For the same compound, the TGI with UACC-257 melanoma was 4.07 µM; in the experiment with IGROV1 ovarian, 2.86 µM; with RXF 393 renal, 5.21 µM; with OVCAR-8 ovarian, above 21.5 µM; in the experiment on CAKI-1 renal it was 1.5 µM; in the experiment with RPMI-8226 leukemia, 4.42 µM. Further, the TGI worked out at 4.38 µM in the experiment on EKVX NSCLC, 3.22 µM in the experiment on U251 CNS, 8.73 µM with HCC-2998 colon and 5.72 µM with COLO 205 colon.
For the compound `Nc1ccccc1C#C/C=C\C#CC#C/C=C\C#Cc1ccccc1N`, the GI50 in the experiment on UACC-257 melanoma was 8.96 µM; in the experiment on IGROV1 ovarian, 2.21 µM; in the experiment on RXF 393 renal it was 2.18 µM; in the experiment on OVCAR-8 ovarian it was 4.8 µM; in the experiment on CAKI-1 renal, 2.74 µM; with RPMI-8226 leukemia it was 515 nM. The GI50 in the experiment on EKVX NSCLC is 7.84 µM; with U251 CNS, 5.61 µM; in the experiment with HCC-2998 colon it was 2.25 µM; in the experiment on COLO 205 colon it was 13.5 µM. Also, the TGI with UACC-257 melanoma came to 32.4 µM; with IGROV1 ovarian, 17.9 µM; with RXF 393 renal it was 6.22 µM; in the experiment with OVCAR-8 ovarian, 29.5 µM; in the experiment with CAKI-1 renal, 11.8 µM; in the experiment on RPMI-8226 leukemia, 5.82 µM. The TGI with EKVX NSCLC came to 28.4 µM; in the experiment on U251 CNS, 22.2 µM; with HCC-2998 colon, 8.03 µM; with COLO 205 colon, 35.9 µM.
`O=[P+](O)c1ccccn1`: the TGI with UACC-257 melanoma, with IGROV1 ovarian, in the experiment on RXF 393 renal, in the experiment with OVCAR-8 ovarian, with CAKI-1 renal and in the experiment with RPMI-8226 leukemia was above 100 µM each time. For the same compound, the TGI in the experiment on EKVX NSCLC, in the experiment on U251 CNS, with HCC-2998 colon and in the experiment on COLO 205 colon was above 100 µM throughout.
Turning to `COc1cccc(/C=C/c2nc3c(cnn3-c3ccccc3)c(=O)[nH]2)c1`, the GI50 was above 100 µM with UACC-257 melanoma; 13 µM in the experiment with IGROV1 ovarian; 17.3 µM with RXF 393 renal; above 54.7 µM in the experiment with OVCAR-8 ovarian; above 45.6 µM in the experiment with CAKI-1 renal; above 100000 nM with RPMI-8226 leukemia. In addition, the GI50 in the experiment on EKVX NSCLC was 65.8 µM; with U251 CNS it was above 72.1 µM; in the experiment with HCC-2998 colon, above 100 µM; in the experiment on COLO 205 colon, above 100 µM. Also, the TGI with UACC-257 melanoma is above 100 µM; with IGROV1 ovarian, above 100 µM; in the experiment on RXF 393 renal it was 67.9 µM; in the experiment with OVCAR-8 ovarian it was above 100 µM; in the experiment with CAKI-1 renal, above 100 µM; in the experiment with RPMI-8226 leukemia, above 100 µM. Besides, the TGI in the experiment with EKVX NSCLC, in the experiment on U251 CNS, with HCC-2998 colon and with COLO 205 colon was above 100 µM each time.
